Tests used:
[1] = system: parent (C57BL/6J) into F1 (B6D2F1) BMT recipients; assay: Non-irradiated parent into F1 BMT model with butyrate; assay type: in vivo, mouse; conditions: intragastric butyrate
HDAC = HDAC enzymatic activity in donor T cells from recipient spleen; assay type: in vivo, mouse; conditions: butyrate vs vehicle treated allogeneic animals
Protocol: To further determine whether the salutary effects of local treatment with butyrate on GI GVHD were dependent on donor Treg cells, a BMT was performed utilizing the same HC mismatched BMT model in which C57BL/6J (H-2b) cells are transferred to Balb/c (H-2d) mice. T cell-depleted (TCD) bone marrow was transplanted and purified CD4+CD25− T cells from donors. Vehicle or butyrate was administered to the recipients daily for 1 week, then every other day thereafter as above. […]. J. Exp. Med. 204, 57-63 (2007); Lahl, K. & Sparwasser, T. In vivo depletion of FoxP3+ Tregs using the DEREG mouse model. […]. The Treg depleted T cells were then used as donor cells in the major MHC mismatch model used above. […] To further examine whether the local administration of butyrate impacted donor T cells directly, the HDAC and HAT enzymatic activity was determined in donor T cells harvested from the recipient animals. Both the HDAC activity or HAT activity in the donor T cells harvested from the recipient spleen were similar between butyrate and vehicle treated allogeneic animals.

GI-barrier = assay: FITC-dextran assay (intestinal permeability); assay type: in vivo, mouse; conditions: 21 days following transplant; butyrate-treated vs vehicle allo-BMT recipients
Protocol: Food and water was withheld from all mice for four hours on day 21 post bone marrow transplant. FITC-dextran (Sigma-Aldrich; St. Louis, Mo.) was administered by 20G-1.5″ flexible intragastric gavage needle (Braintree Scientific; Braintree, Mass.) at a concentration of 50 mg/ml in PBS. BMT recipients received 800 mg/kg (˜16 mg/mouse). Four hours later, serum was collected from peripheral blood, diluted 1:1 with PBS, and analyzed on a plate reader at excitation/emission wavelength of 485 nm/535 nm. Concentrations of FITCdextran experimental samples were determined based on a standard curve.
Intestinal permeability after allo-BMT was assessed by intragastric administration of FITC-dextran, a non-metabolized carbohydrate (Hanash, A. M. et al. Interleukin-22 protects intestinal stem cells from immune-mediated tissue damage and regulates sensitivity to graft versus host disease. Immunity 37, 339-350 (2012)).

CD326+ IECs = assay: IEC viability assay with or without irradiation (6 Gy); assay type: cell-based, mouse; conditions: ex vivo
Protocol: Primary intestinal epithelial cells (IECs) were obtained from C57BL/6J mice as described previously (Lefrangois, L. & Lycke, N. Isolation of Mouse Small Intestinal Intraepithelial Lymphocytes, Peyer's Patch, and Lamina Propria Cells. (John Wiley & Sons, Inc., 2001)). Briefly, luminal contents of intestine were flushed with CMF solution. Intestine was then minced into 0.5 cm pieces, washed with CMF four times, transferred to CMF/FBS/EDTA, and incubated at 37° C. for 60 minutes (shaking tubes every 10 minutes). Supernatant containing IECs was then transferred through […] cell filter followed by incubation on ice for 10 minutes to allow sedimentation. Supernatant was again transferred through a 75 μM cell filter. CD326+ IECs were next purified utilizing either FACS or anti-APC magnetic microbeads (Miltenyi Biotec Ltd., Auburn, Calif.) and an autoMACs (Miltenyi Biotec). […]
The potential mechanisms that contribute to butyrate-induced protection from severe GVHD were explored. […] The ability of butyrate-treated IECs to withstand damage mediated by alloreactive T cells was determined by isolating and culturing primary IECs with butyrate or vehicle control, overnight. […] Because butyrate is a primary energy source for IECs 1-13, it was next determined whether butyrate enhances survival and growth of IECs in vitro. […]

CCCC(=O)[O-].[Na+] [butyrate, sodium butyrate]
survival [1]: improved survival
weight loss [1]: Significantly less weight loss
HDAC activity in donor T cells (HDAC): similar
detectable FITC-dextran in the serum (GI-barrier): significantly less
irradiation-induced apoptosis of IECs (CD326+ IECs; irradiation 6 Gy): conferred protection
toxicity to IECs (CD326+ IECs; no irradiation): not toxic

Reference: patent US11260083B2, “Compositions and methods for treating and preventing graft versus host disease” (The Regents of the University of Michigan, priority 2016, dated 2022)
